Results: PubChem BioAssay (NCI)
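Here, GI50 denotes the concentration required for 50% inhibition of growth. The concentration for full growth arrest is given as TGI.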

How the values were obtained:
Assay in all cases: NCI anticancer screen, dose series, 384-well format
[1] = system: NCI-H23 lung
[2] = system: NCI-H322M lung
[3] = system: NCI-H460 NSCLC
[4] = system: NCI-H522 lung
[5] = system: NCI/ADR-RES ovarian
[6] = system: OVCAR-3 ovarian
[7] = system: OVCAR-4 ovarian
[8] = system: OVCAR-5 ovarian
[9] = system: OVCAR-8 ovarian
[10] = system: PC-3 prostate
[11] = system: RPMI-8226 leukemia
[12] = system: RXF 393 renal
[13] = system: SF-268 CNS
[14] = system: SF-295 CNS
[15] = system: SF-539 CNS
[16] = system: SK-MEL-2 melanoma
[17] = system: SK-MEL-28 melanoma
[18] = system: SK-MEL-5 melanoma
[19] = system: SK-OV-3 ovarian
[20] = system: SN12C renal
[21] = system: SNB-19 CNS
[22] = system: SNB-75 CNS
[23] = system: SR leukemia
[24] = system: SW-620 colon
[25] = system: T-47D breast
[26] = system: TK-10 renal
[27] = system: U251 glioblastoma
[28] = system: UACC-257 melanoma
[29] = system: UACC-62 melanoma

With `CCn1c(=O)c(-c2ccn[nH]2)cc2c(C)nc(N)nc21` the GI50 [1] was 1430 nM, the TGI [1] was > 30200 nM and the GI50 [2] was 2180 nM. For the same compound, the TGI [2] was 10300 nM, the GI50 [3] was 883 nM and the TGI [3] was 10800 nM. For the same compound, the GI50 [4] was 671 nM, the TGI [4] was 4230 nM and the GI50 [5] was 1580 nM. The TGI [5] was 8000 nM, the GI50 [6] was 853 nM and the TGI [6] was 4460 nM. It also gave a GI50 [7] of 1390 nM, a TGI [7] of 11200 nM and a GI50 [8] of 1010 nM. For the same compound, the TGI [8] was 6830 nM, the GI50 [9] was 2750 nM and the TGI [9] was > 60400 nM. The GI50 [10] was 369 nM, the TGI [10] was 2570 nM and the GI50 [11] was 232 nM. It also gave a TGI [11] of 646 nM, a GI50 [12] of 399 nM and a TGI [12] of 1900 nM. It also gave a GI50 [13] of 1890 nM, a TGI [13] of 15600 nM and a GI50 [14] of 1580 nM. The TGI [14] was 8640 nM, the GI50 [15] was 2970 nM and the TGI [15] was 21500 nM. For the same compound, the GI50 [16] was 3220 nM, the TGI [16] was 9870 nM and the GI50 [17] was 1140 nM. It also gave a TGI [17] of 7220 nM, a GI50 [18] of 1160 nM and a TGI [18] of 4000 nM. It also gave a GI50 [19] of 562 nM, a TGI [19] of 2930 nM and a GI50 [20] of 1220 nM. For the same compound, the TGI [20] was > 34500 nM, the GI50 [21] was 18100 nM and the TGI [21] was > 100000 nM. For the same compound, the GI50 [22] was 477 nM, the TGI [22] was 2400 nM and the GI50 [23] was 1750 nM. The TGI [23] was 5000 nM, the GI50 [24] was 3240 nM and the TGI [24] was 25700 nM. For the same compound, the GI50 [25] was 394 nM, the TGI [25] was 2040 nM and the GI50 [26] was 790 nM. The TGI [26] was 3500 nM, the GI50 [27] was 5620 nM and the TGI [27] was 97900 nM. It also gave a GI50 [28] of 3780 nM, a TGI [28] of 39400 nM and a GI50 [29] of 1560 nM. The TGI [29] was 10700 nM.
